# In US8105835B2, “Method for micropropagation of monocots based on sustained totipotent cell cultures” (The University of South Carolina, priority 2007, dated 2012):
# How the values were obtained:
# [1] = test system: Arundo donax explants (cross-sectional segments of immature inflorescence); assay: Phosphinothricin selection of explants on primary solid culture medium; assay type: cell-based; details: 10 mg/L, four weeks selection, FIG. 6A
# Method: Agrobacterium tumefaciens carrying the plasmid, pMSF3022, was used to transform Arundo donax explants (cross-sectional segments of immature inflorescence). Plasmid pMSF3022 carries the bar gene that confers resistance to phosphinothricin and provides a positive selection and the gfp (green fluorescent protein) gene which provides a visual selection of transformants. Antibiotic resistant transformants were selected for four weeks after gene transfer by incubating the explants on primary solid culture medium with or without phosphinothricin and containing ticarcillin at […] concentration to eliminate residual Agrobacterium. As shown in FIG. 6A control explants (untransformed) were killed by 10 mg/L of phosphinothricin (antibiotic/herbicide). In the absence of the antibiotic/herbicide, the control explants develop embryogenic callus (FIG. 6B). In contrast, the explants that were cocultivated with the A. tumefaciens carrying the plasmid, pMSF3022 (transformed), were able to develop embryogenic callus in the presence of 10 mg/L of phosphinothricin (FIG. 6C).
# [2] = test system: monocot embryogenic cell culture; assay: Transfer of culture from auxin plus cytokinin medium to medium with cytokinin only; assay type: cell-based; details: medium without auxin but maintaining the cytokinin
# Method: As known to those of skill in the art, cytokinins, both natural and synthetic, are used to induce shoot formation while inhibiting root formation (Trigiano and Gray, Plant tissue culture concepts and laboratory exercises. Second ed., Boca Raton: CRC Press (2000)).
# In one embodiment, the tertiary medium is prepared by adding to sterile water (a) the cytokinin, thidiazuron; (b) sucrose, 30 g/l; (c) Miller's salt solution (6% w/v, KH2 PO4), about 3 ml; and (d) MS salts, 4.3 g/l. In one embodiment the concentration of the thidiazuron is from about 0.01 mg/l to about 1 mg/l. In another embodiment, the concentration of the thidiazuron is about 0.02 mg/l.
SMILES,effect on control (untransformed) explants [1],effect on shoot elongation and root formation [2]
CP(=O)(O)CC[C@H](N)C(=O)O [phosphinothricin],killed,
O=C(Nc1ccccc1)Nc1cnns1 [thidiazuron],,not only was shoot elongation promoted but unexpectedly root formation also resulted
